Measured values: patent US12077503B2, “Substituted cyclic amides and their use as herbicides” (FMC CORPORATION, priority 2015, dated 2024)

Tests used:
Type in all cases: in vivo
rice (Oryra sativa) = test: Test B flooded paddy test; details: Oryza sativa, 250 g ai/ha, Flood; 0 to 100 scale where 0 is no effect and 100 is complete control; read-out: Rice plant response rating
Summary of the method: (§1)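 Rating scale 0–100 (visual, vs untreated controls) after a 13–15 d greenhouse period; application to the flood layer, 3 cm above soil and maintained; plants at 2-leaf stage when treated.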

[1] = tested on: ducksalad (Heteranthera limosa); test: Test B flooded paddy test; details: Heteranthera limosa, 250 g ai/ha, Flood; 0 to 100 scale where 0 is no effect and 100 is complete control; read-out: Ducksalad plant response rating
Summary of the method: as §1

[2] = tested on: sedge, umbrella (small-flower umbrella sedge, Cyperus difformis); test: Test B flooded paddy test; details: Cyperus difformis, 250 g ai/ha, Flood; 0 to 100 scale where 0 is no effect and 100 is complete control; read-out: Sedge, Umbrella plant response rating
Summary of the method: as §1

[3] = tested on: barnyardgrass (Echinochloa crus-galli); test: Test B flooded paddy test; details: Echinochloa crus-galli, 250 g ai/ha, Flood; 0 to 100 scale where 0 is no effect and 100 is complete control; read-out: Barnyardgrass plant response rating
Summary of the method: as §1

corn (Zea mays) = test: Test A postemergence; details: Zea mays, post-emergence, 240 h; for Corn plant response rating (crop injury, 0 = no effect, 100 = complete kill) at 125 g/ha: 125 g ai/ha, Postemergence, visual injury after approximately 10 d, 0 to 100 scale where 0 is no effect and 100 is complete control; for Corn plant response rating (crop injury, 0 = no effect, 100 = complete kill) at 500 g/ha: 500 g ai/ha, postemergence, visual injury, 0 to 100 scale (0 no effect, 100 complete control), approx. 10 d
Summary of the method: (§2)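 Preemergence soil spray on seeded pots or post-emergence spray on 1–2 leaf plants, in loam–sand blend. Greenhouse ~10 d. Visual rating 0–100 against untreated plants.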

[4] = tested on: ryegrass, Italian (Italian ryegrass, Lolium multiflorum); test: Test A postemergence; details: Lolium multiflorum, post-emergence, 240 h, read-out: Plant response rating, Ryegrass, Italian; for pest or weed control at 125 g/ha: 125 g ai/ha, Postemergence, visual injury after approximately 10 d, 0 to 100 scale where 0 is no effect and 100 is complete control; for pest or weed control at 500 g/ha: 500 g ai/ha, postemergence, visual injury, 0 to 100 scale (0 no effect, 100 complete control), approx. 10 d
Summary of the method: as §2

[5] = tested on: pigweed (Amaranthus retroflexus); test: Test A postemergence; details: Amaranthus retroflexus, post-emergence, 240 h, read-out: Plant response rating, Pigweed; for pest or weed control at 125 g/ha: 125 g ai/ha, Postemergence, visual injury after approximately 10 d, 0 to 100 scale where 0 is no effect and 100 is complete control; for pest or weed control at 500 g/ha: 500 g ai/ha, postemergence, visual injury, 0 to 100 scale (0 no effect, 100 complete control), approx. 10 d
Summary of the method: as §2

[6] = tested on: Galium (catchweed bedstraw, Galium aparine); test: Test A postemergence; details: Galium, post-emergence, 240 h, read-out: Plant response rating, Galium; for pest or weed control at 125 g/ha: 125 g ai/ha, Postemergence, visual injury after approximately 10 d, 0 to 100 scale where 0 is no effect and 100 is complete control; for pest or weed control at 500 g/ha: 500 g ai/ha, postemergence, visual injury, 0 to 100 scale (0 no effect, 100 complete control), approx. 10 d
Summary of the method: as §2

[7] = tested on: blackgrass (Alopecurus myosuroides); test: Test A postemergence; details: Alopecurus myosuroides, post-emergence, 240 h, read-out: Plant response rating, Blackgrass; for pest or weed control at 125 g/ha: 125 g ai/ha, Postemergence, visual injury after approximately 10 d, 0 to 100 scale where 0 is no effect and 100 is complete control; for pest or weed control at 500 g/ha: 500 g ai/ha, postemergence, visual injury, 0 to 100 scale (0 no effect, 100 complete control), approx. 10 d
Summary of the method: as §2

[8] = tested on: giant foxtail (Setaria faberii); test: Test A postemergence; details: Setaria faberi, post-emergence, 240 h, read-out: Plant response rating, Foxtail, Giant; for pest or weed control at 125 g/ha: 125 g ai/ha, Postemergence, visual injury after approximately 10 d, 0 to 100 scale where 0 is no effect and 100 is complete control; for pest or weed control at 500 g/ha: 500 g ai/ha, postemergence, visual injury, 0 to 100 scale (0 no effect, 100 complete control), approx. 10 d
Summary of the method: as §2

Kochia (Kochia scoparia) [9] = test: Test A postemergence; details: Bassia scoparia, post-emergence, 240 h, read-out: Plant response rating, Kochia; for pest or weed control at 125 g/ha: 125 g ai/ha, Postemergence, visual injury after approximately 10 d, 0 to 100 scale where 0 is no effect and 100 is complete control; for pest or weed control at 500 g/ha: 500 g ai/ha, postemergence, visual injury, 0 to 100 scale (0 no effect, 100 complete control), approx. 10 d
Summary of the method: as §2

[10] = tested on: wheat (Triticum aestivum); test: Test A postemergence; details: Triticum aestivum, post-emergence, 240 h, read-out: Plant response rating, Wheat; for plant injury at 125 g/ha: 125 g ai/ha, Postemergence, visual injury after approximately 10 d, 0 to 100 scale where 0 is no effect and 100 is complete control; for plant injury at 500 g/ha: 500 g ai/ha, postemergence, visual injury, 0 to 100 scale (0 no effect, 100 complete control), approx. 10 d
Summary of the method: as §2

[11] = tested on: barnyardgrass (Echinochloa crus-galli); test: Test A postemergence; details: Echinochloa crus-galli, post-emergence, 240 h, read-out: Plant response rating, Barnyardgrass; for pest or weed control at 125 g/ha: 125 g ai/ha, Postemergence, visual injury after approximately 10 d, 0 to 100 scale where 0 is no effect and 100 is complete control; for pest or weed control at 500 g/ha: 500 g ai/ha, postemergence, visual injury, 0 to 100 scale (0 no effect, 100 complete control), approx. 10 d
Summary of the method: as §2

[12] = tested on: ragweed (common ragweed, Ambrosia elatior); test: Test A postemergence; details: Ambrosia artemisiifolia, post-emergence, 240 h, read-out: Plant response rating, Ragweed; for pest or weed control at 125 g/ha: 125 g ai/ha, Postemergence, visual injury after approximately 10 d, 0 to 100 scale where 0 is no effect and 100 is complete control; for pest or weed control at 500 g/ha: 500 g ai/ha, postemergence, visual injury, 0 to 100 scale (0 no effect, 100 complete control), approx. 10 d
Summary of the method: as §2

[13] = tested on: ryegrass, Italian (Italian ryegrass, Lolium multiflorum); test: Test A preemergence; details: Lolium multiflorum, pre-emergence, 240 h; for pest or weed control at 125 g/ha: 125 g ai/ha, Preemergence, visual injury rating after approximately 10 d, read-out: Ryegrass, Italian plant response rating (0 to 100 scale, 0 is no effect, 100 is complete control); for pest or weed control at 500 g/ha: 500 g ai/ha, preemergence, visual injury rating about 10 d after treatment, 0 to 100 scale (0 no effect, 100 complete control), read-out: Ryegrass, Italian plant response rating
Summary of the method: as §2

[14] = tested on: pigweed (Amaranthus retroflexus); test: Test A preemergence; details: Amaranthus retroflexus, pre-emergence, 240 h; for pest or weed control at 125 g/ha: 125 g ai/ha, Preemergence, visual injury rating after approximately 10 d, read-out: Pigweed plant response rating (0 to 100 scale, 0 is no effect, 100 is complete control); for pest or weed control at 500 g/ha: 500 g ai/ha, preemergence, visual injury rating about 10 d after treatment, 0 to 100 scale (0 no effect, 100 complete control), read-out: Pigweed plant response rating
[15] = tested on: giant foxtail (Setaria faberii); test: Test A preemergence; details: Setaria faberi, pre-emergence, 240 h; for pest or weed control at 125 g/ha: 125 g ai/ha, Preemergence, visual injury rating after approximately 10 d, read-out: Foxtail, Giant plant response rating (0 to 100 scale, 0 is no effect, 100 is complete control); for pest or weed control at 500 g/ha: 500 g ai/ha, preemergence, visual injury rating about 10 d after treatment, 0 to 100 scale (0 no effect, 100 complete control), read-out: Foxtail, Giant plant response rating
Summary of the method: as §2

Kochia (Kochia scoparia) [16] = test: Test A preemergence; details: Bassia scoparia, pre-emergence, 240 h; for pest or weed control at 125 g/ha: 125 g ai/ha, Preemergence, visual injury rating after approximately 10 d, read-out: Kochia plant response rating (0 to 100 scale, 0 is no effect, 100 is complete control); for pest or weed control at 500 g/ha: 500 g ai/ha, preemergence, visual injury rating about 10 d after treatment, 0 to 100 scale (0 no effect, 100 complete control), read-out: Kochia plant response rating
Summary of the method: as §2

[17] = tested on: barnyardgrass (Echinochloa crus-galli); test: Test A preemergence; details: Echinochloa crus-galli, pre-emergence, 240 h; for pest or weed control at 125 g/ha: 125 g ai/ha, Preemergence, visual injury rating after approximately 10 d, read-out: Barnyardgrass plant response rating (0 to 100 scale, 0 is no effect, 100 is complete control); for pest or weed control at 500 g/ha: 500 g ai/ha, preemergence, visual injury rating about 10 d after treatment, 0 to 100 scale (0 no effect, 100 complete control), read-out: Barnyardgrass plant response rating
Summary of the method: as §2

[18] = tested on: ragweed (common ragweed, Ambrosia elatior); test: Test A preemergence; details: Ambrosia artemisiifolia, pre-emergence, 240 h; for pest or weed control at 125 g/ha: 125 g ai/ha, Preemergence, visual injury rating after approximately 10 d, read-out: Ragweed plant response rating (0 to 100 scale, 0 is no effect, 100 is complete control); for pest or weed control at 500 g/ha: 500 g ai/ha, preemergence, visual injury rating about 10 d after treatment, 0 to 100 scale (0 no effect, 100 complete control), read-out: Ragweed plant response rating
Summary of the method: as §2

Compound | pest or weed control at 250 g/ha (rice (Oryra sativa)) [%] | pest or weed control at 250 g/ha [1] [%] | pest or weed control at 250 g/ha [2] [%] | pest or weed control at 250 g/ha [3] [%] | Corn plant response rating (crop injury, 0 = no effect, 100 = complete kill) at 125 g/ha (corn (Zea mays)) [%] | Corn plant response rating (crop injury, 0 = no effect, 100 = complete kill) at 500 g/ha (corn (Zea mays)) [%] | pest or weed control at 125 g/ha [4] [%] | pest or weed control at 500 g/ha [4] [%] | pest or weed control at 125 g/ha [5] [%] | pest or weed control at 500 g/ha [5] [%] | pest or weed control at 125 g/ha [6] [%] | pest or weed control at 500 g/ha [6] [%] | pest or weed control at 125 g/ha [7] [%] | pest or weed control at 500 g/ha [7] [%] | pest or weed control at 125 g/ha [8] [%] | pest or weed control at 500 g/ha [8] [%] | pest or weed control at 125 g/ha (Kochia (Kochia scoparia) [9]) [%] | pest or weed control at 500 g/ha (Kochia (Kochia scoparia) [9]) [%] | plant injury at 125 g/ha [10] [%] | plant injury at 500 g/ha [10] [%] | further results
CN1CC[C@H](c2ccc(OC(F)(F)F)cc2)[C@@H](C(=O)Nc2ccc(F)c(F)c2F)C1=O [Compound 1000] | 0 | 90 | 0 | 0 | 0 | 20 | 0 | 0 | 0 | 0 | 0 | 0 | 0 | 0 | 0 | 50 | 40 | 40 | 0 | 0 | pest or weed control at 125 g/ha [11]: 60%; pest or weed control at 500 g/ha [11]: 100%; pest or weed control at 125 g/ha [12]: 0%; pest or weed control at 500 g/ha [12]: 0%; pest or weed control at 125 g/ha [13]: 0%; pest or weed control at 500 g/ha [13]: 20%; pest or weed control at 125 g/ha [14]: 20%; pest or weed control at 500 g/ha [14]: 40%; pest or weed control at 125 g/ha [15]: 70%; pest or weed control at 500 g/ha [15]: 90%; pest or weed control at 125 g/ha (Kochia (Kochia scoparia) [16]): 0%; pest or weed control at 500 g/ha (Kochia (Kochia scoparia) [16]): 0%; pest or weed control at 125 g/ha [17]: 0%; pest or weed control at 500 g/ha [17]: 60%; pest or weed control at 125 g/ha [18]: 0%; pest or weed control at 500 g/ha [18]: 0%
CSc1ccccc1NC(=O)[C@H]1C(=O)N(C)CC[C@@H]1c1ccc(OC(F)(F)F)cc1 [Compound 1001] | 0 | 0 | 0 | 0 | 0 | 0 | 0 | 0 | 0 | 0 | 0 | 0 | 0 | 0 | 0 | 0 | 0 | 0 | 0 | 0 | pest or weed control at 125 g/ha [11]: 0%; pest or weed control at 500 g/ha [11]: 0%; pest or weed control at 125 g/ha [12]: 0%; pest or weed control at 500 g/ha [12]: 0%; pest or weed control at 125 g/ha [13]: 0%; pest or weed control at 500 g/ha [13]: 0%; pest or weed control at 125 g/ha [14]: 0%; pest or weed control at 500 g/ha [14]: 0%; pest or weed control at 125 g/ha [15]: 0%; pest or weed control at 500 g/ha [15]: 0%; pest or weed control at 125 g/ha (Kochia (Kochia scoparia) [16]): 0%; pest or weed control at 500 g/ha (Kochia (Kochia scoparia) [16]): 0%; pest or weed control at 125 g/ha [17]: 0%; pest or weed control at 500 g/ha [17]: 0%; pest or weed control at 125 g/ha [18]: 0%; pest or weed control at 500 g/ha [18]: 0%
